Assay results as given in ChEMBL document CHEMBL1138906, “Development of sulfonamide compounds as potent methionine aminopeptidase type II inhibitors with antiproliferative properties” (Bioorg Med Chem Lett, 2006).

Experiments:
[1] = Protein binding in rat plasma at 10 uM at pH 7.4; format: ADME, cell-free; conditions: read-out: PPB (converted)
HMEC = assay: cells; conditions: Homo sapiens
Description: Antiproliferative activity against HMVEC

[2] = target: T1, Methionine aminopeptidase 2 (Homo sapiens, UniProt P50579); assay: Inhibition of MetAP2
[3] = target: T1, Methionine aminopeptidase 2; assay: Inhibition of MetAP2 in presence of 40 mg/ml human serum albumin
[4] = target: Methionine aminopeptidase 1 (Homo sapiens, UniProt P53582); assay: Inhibition of MetAP1
[5] = target: Methionine aminopeptidase (Pyrococcus furiosus (strain ATCC 43587 / DSM 3638 / JCM 8422 / Vc1), UniProt P56218); assay: Inhibition of Pyrococcus furiosus MetAP
Sequence of Methionine aminopeptidase (P56218 whole entry): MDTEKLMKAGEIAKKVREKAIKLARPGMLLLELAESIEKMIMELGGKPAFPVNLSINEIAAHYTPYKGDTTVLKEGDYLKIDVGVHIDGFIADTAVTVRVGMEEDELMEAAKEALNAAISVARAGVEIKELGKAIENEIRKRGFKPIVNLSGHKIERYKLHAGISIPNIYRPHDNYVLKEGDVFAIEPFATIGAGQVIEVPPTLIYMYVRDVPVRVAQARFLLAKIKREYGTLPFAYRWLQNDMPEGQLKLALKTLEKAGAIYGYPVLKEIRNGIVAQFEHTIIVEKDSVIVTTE

[6] = Inhibition of AP; set-up: species or system Homo sapiens
Xaa-Pro aminopeptidase 1 = Xaa-Pro aminopeptidase 1 (Homo sapiens, UniProt Q9NQW7); assay: Inhibition of AP1
Sequence of Xaa-Pro aminopeptidase 1 (Q9NQW7 whole entry): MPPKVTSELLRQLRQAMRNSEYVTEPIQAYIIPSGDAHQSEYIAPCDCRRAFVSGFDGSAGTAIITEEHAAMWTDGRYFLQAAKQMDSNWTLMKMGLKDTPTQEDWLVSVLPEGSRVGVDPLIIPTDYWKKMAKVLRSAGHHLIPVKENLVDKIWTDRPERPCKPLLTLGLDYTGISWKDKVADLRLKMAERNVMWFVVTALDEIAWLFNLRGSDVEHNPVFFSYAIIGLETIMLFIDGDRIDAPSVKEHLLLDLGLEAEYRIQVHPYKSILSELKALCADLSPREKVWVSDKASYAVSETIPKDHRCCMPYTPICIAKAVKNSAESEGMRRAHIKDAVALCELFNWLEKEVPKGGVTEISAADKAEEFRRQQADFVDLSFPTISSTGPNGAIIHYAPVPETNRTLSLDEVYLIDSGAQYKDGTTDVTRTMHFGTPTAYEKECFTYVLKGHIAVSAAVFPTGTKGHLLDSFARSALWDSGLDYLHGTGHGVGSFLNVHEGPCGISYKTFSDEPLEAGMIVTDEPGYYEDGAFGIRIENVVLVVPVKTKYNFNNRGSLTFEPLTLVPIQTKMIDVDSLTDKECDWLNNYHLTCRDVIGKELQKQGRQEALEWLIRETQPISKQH

Aminopeptidase N = Aminopeptidase N (Homo sapiens, UniProt P15144); assay: Inhibition of AP-M
Sequence of Aminopeptidase N (P15144 whole entry): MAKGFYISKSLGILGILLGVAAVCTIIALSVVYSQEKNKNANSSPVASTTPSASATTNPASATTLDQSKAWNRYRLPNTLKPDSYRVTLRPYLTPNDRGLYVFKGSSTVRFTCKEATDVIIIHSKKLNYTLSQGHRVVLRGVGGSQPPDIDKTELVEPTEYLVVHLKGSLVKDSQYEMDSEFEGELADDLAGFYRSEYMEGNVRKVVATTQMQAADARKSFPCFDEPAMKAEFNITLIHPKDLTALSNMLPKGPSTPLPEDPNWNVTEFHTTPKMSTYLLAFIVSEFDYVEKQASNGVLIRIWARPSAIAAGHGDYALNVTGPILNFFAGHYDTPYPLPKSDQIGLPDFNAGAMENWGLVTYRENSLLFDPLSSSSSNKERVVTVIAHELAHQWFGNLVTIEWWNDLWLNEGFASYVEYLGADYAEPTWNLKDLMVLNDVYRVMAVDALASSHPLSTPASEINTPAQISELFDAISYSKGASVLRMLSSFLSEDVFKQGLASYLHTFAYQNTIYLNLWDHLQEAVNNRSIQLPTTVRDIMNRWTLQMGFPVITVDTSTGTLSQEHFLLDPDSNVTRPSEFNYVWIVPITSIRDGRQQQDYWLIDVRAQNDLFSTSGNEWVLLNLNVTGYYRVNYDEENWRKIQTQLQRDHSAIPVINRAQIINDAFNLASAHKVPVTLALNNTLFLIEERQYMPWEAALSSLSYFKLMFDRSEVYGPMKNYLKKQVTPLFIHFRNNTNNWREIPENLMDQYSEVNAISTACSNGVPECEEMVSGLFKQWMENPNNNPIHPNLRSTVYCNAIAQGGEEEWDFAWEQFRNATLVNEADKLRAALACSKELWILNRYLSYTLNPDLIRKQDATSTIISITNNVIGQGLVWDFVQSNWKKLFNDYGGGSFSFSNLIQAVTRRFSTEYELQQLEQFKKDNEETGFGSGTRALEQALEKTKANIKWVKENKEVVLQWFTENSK

T1 sequence (P50579 whole entry): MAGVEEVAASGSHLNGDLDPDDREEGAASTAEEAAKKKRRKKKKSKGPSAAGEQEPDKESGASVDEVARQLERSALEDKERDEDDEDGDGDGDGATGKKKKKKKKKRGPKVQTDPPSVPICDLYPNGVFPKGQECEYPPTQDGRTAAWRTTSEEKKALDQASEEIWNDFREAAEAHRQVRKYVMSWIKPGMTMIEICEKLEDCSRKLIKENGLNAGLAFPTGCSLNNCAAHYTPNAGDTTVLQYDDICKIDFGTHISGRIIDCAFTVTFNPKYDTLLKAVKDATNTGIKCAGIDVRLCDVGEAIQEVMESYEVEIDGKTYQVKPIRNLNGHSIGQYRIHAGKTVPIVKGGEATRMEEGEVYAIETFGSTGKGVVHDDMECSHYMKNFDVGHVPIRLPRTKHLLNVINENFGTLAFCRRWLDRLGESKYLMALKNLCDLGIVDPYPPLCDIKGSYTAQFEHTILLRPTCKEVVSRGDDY

SMILES	fraction unbound at 10 µM [1]	IC50 (HMEC)	further results
CCCCc1ccc(NS(=O)(=O)c2ccccc2)c(C(=O)O)c1		100 µM	
CCc1ccc(NS(=O)(=O)c2ccccc2)c(C(=O)O)c1	0.002	10 µM	
O=C(O)c1c(NS(=O)(=O)c2ccccc2)ccc2ccccc12	0.002	0.5 µM	IC50 [2]: 0.019 µM; IC50 [3]: 3.8 µM; IC50 [4]: 47 µM; IC50 [5]: > 100 µM; IC50 [6]: > 100 µM; IC50 (Xaa-Pro aminopeptidase 1): > 100 µM; IC50 (Aminopeptidase N): > 100 µM
O=C(O)c1c(NS(=O)(=O)c2ccc(F)cc2)ccc2ccccc12	0.008	0.5 µM	
O=C(O)c1cc(Br)ccc1NS(=O)(=O)c1cccc2nsnc12		2 µM	IC50 [2]: 3.9 µM; IC50 [3]: > 100 µM
O=C(O)c1cc(Br)ccc1NS(=O)(=O)c1ccc(Cl)cc1		3 µM	
CCCc1ccc(NS(=O)(=O)c2ccccc2)c(C(=O)O)c1		60 µM	

Now those with a lower IC50 (HMEC), led by results:

fraction unbound at 10 µM [1]	IC50 (HMEC)	SMILES	further results
	0.4 µM	Cc1cc(C)c(NS(=O)(=O)c2ccccc2)c(C(=O)O)c1	
0.019	0.3 µM	Cc1ccc(NS(=O)(=O)c2ccc(Cl)cc2)c(C(=O)O)c1	
	0.18 µM	O=C(O)c1c(NS(=O)(=O)c2ccc(F)cc2)ccc2c1CCCC2	
	0.15 µM	CC1=CCCc2ccc(NS(=O)(=O)c3ccc(F)cc3)c(C(=O)O)c21	
	0.13 µM	C[C@H]1CCCc2ccc(NS(=O)(=O)c3ccc(F)cc3)c(C(=O)O)c21	
0.003	0.1 µM	Cc1ccc(NS(=O)(=O)c2ccccc2)c(C(=O)O)c1	
